Measured values reported in patent publication US6218112A, “Optimization of gene delivery and gene delivery system” (Cobra Therapeutics Limited, priority 1997, dated 2001).
* marks the point of attachment. Acm = CC(=O)NC*

How the values were obtained:
[1] = tested on: KLN-205 squamous epithelial syngenic tumour cells; experiment: In vivo transfection of KLN-205 tumours in DBA2 mice by local injection of peptide/plasmid complexes (nitroreductase immunostaining); design: species or system mouse; conditions: for ranking by numbers of transfected tumor cells (most to least efficient): 0.5 μg peptide/μg DNA, intratumoural injection
Protocol: A representative in via cell transfection system is transfection of tumor cells using a murine carcinoma model.
The murine carcinoma model DBA2 containing the squamous epithelial syngenic tumour cell line KLN-205 was prepared as described in the Examples. A transfecting complex was prepared using a solution of plasmid DNA encoding a reporter gene or, for example, nitroreductase and a selected NBC peptide 0.5 μg peptide/μg DNA, as described herein. Where desired, a conjugate peptide was added to the transfecting complex, at a concentration of 0.1-0.3 μg […] peptide/μg DNA.
Transfection efficiency may be determined in a number of ways, including assessing the effect of the reporter gene on the target tissue, or by quantitating the gene product. Below, tissues samples were obtained and nitroreductase gene expression was ascertained via staining of tissue sections.
The ability to transfect tumor cells in vivo in mice was tested using plasmid nucleic acid carrying the nitroreductase reporter gene condensed on each of the following peptides: NBC15, NBC8, NBC9, NBC11, NBC7.
DBA2--male mice, aged 5-10 weeks were injected subcutaneously in each flank with a squamous epithelial syngenic tumour cell line KLN-205. The cell line was grown up in 175 ml T-flasks in standard EMEM medium containing 10% foetal calf serum. When the cells reached a density of 4×10^6 they were suspended by a standard trypsinization technique, washed in PBS and diluted to a final concentration of […].
The anaesthetic was Enflurane (Alynane; Anaquest, Ltd., Windlesham, Surrey UK): Ketamine (10% Ketaset, Willows Francis Veterinary, Cramley, West Sussex, UK); Rompun (2%, Bayer UK, Ltd., Suffolk, UK). For 10 ml anaesthetic mixture: 8.5 ml PBS; 1 ml Ketamine; 0.5 ml Rompun. Each animal was injected intra-peritoneally with 200 μl/animal using 1 ml syringe with 25 gauge needle. Once anaesthetized, the tumour is manipulated between the fingers lifting it slightly away from the animal's body and at the same time apply minimum pressure to the tumour. Using a 0.5 ml insulin needle the formulated delivery vehicle (a plasmid containing the E. coli nitroreductase gene condensed on a peptide at a ratio of 0.5 μg peptide/μg DNA) to be injected is taken up and the tumour is injected horizontally trying to avoid any visible blood vessels and necrotic or abnormal tissue. Daily monitoring is continued until the experiment is terminated.
7μ sections of frozen tumour tissue are prepared using standard methods and a Cryostat and air dried. Sections are fixed with freshly prepared 4% PFA/PBS for 30 mins at room temperature and then washed twice with 0.01% Tween-20/PBS 5 mins each wash. Sections are then immersed in 0.25% hydrogen peroxide/PBS, at room temperature (20C.) for 30 mins, and then washed three times in 0.01% Tween 20/PBS for 5 mins each wash. Sections are then permeabilised by treatment with ice cold 0.1 % TRITON X-100 for 5 mins, followed by a further two washes in 0.01% Tween-20/PBS 5mins each wash. The sections are then blocked with 5% NGS/PBS 60mins at room temperature in a wetbox. After decanting the blocking solution, 0.5 ml diluted antiserum/slide (1:400 in 2.5% NGS) is added and the sections incubated for 60 mins at room temperature. Slides are then washed three times in 0.01% Tween-20/PBS 5 mins each wash. Secondary antibody (0.5 ml) from ABC Elite Vector stain kit is added as follows and incubated 30 mins at room temperature in a wetbox.
The tumour is a murine syngenic squamous carcinoma produced by subcutaneous injection of KLN205 cells. When the tumours were approximately 4 mm in diameter they were injected with 20 μl of plasmid DNA formulated with the NBC15 peptide. After 48 h the tumours were excised and sectioned by standard histological techniques and immunostained for expression of the transgene (E. coli nitroreductase). […] In this case the tumours were injected with the same plasmid formulated in 0.5 μg NBC9 peptide/μg DNA.

cells = experiment: Transfection efficiency / activity of complexes (general statement); type: cell-based; conditions: related to affinity for nucleic acid

Substance | ranking by numbers of transfected tumor cells (most to least efficient) [1] | transfection efficiency (cells) | transfection efficiency on direct injection within a localized area ([1]; in vivo, direct injection, e.g. a tumour)
NH2-TKKAWKKAEKKAAKKCGVSAKKAAKKAWKKA-CONH2 (H-TKKAWKKAEKKAAKKCGVSAKKAAKKAWKKA-NH2) [NBC11] | NBC15>NBC8, NBC9, NBC11>NBC7>>>poly-lysine | not completely deleterious to transfection | 
NH2-KKSPKKAKKPAAKKSPKKAKKPAYC(Acm)-COOH (H-KKSPKKAKKPAAKKSPKKAKKPAYC(Acm)-OH; SMILES CC(=O)NCSC[C@H](NC(=O)[C@H](Cc1ccc(O)cc1)NC(=O)[C@H](C)NC(=O)[C@@H]1CCCN1C(=O)[C@H](CCCCN)NC(=O)[C@H](CCCCN)NC(=O)[C@H](C)NC(=O)[C@H](CCCCN)NC(=O)[C@H](CCCCN)NC(=O)[C@@H]1CCCN1C(=O)[C@H](CO)NC(=O)[C@H](CCCCN)NC(=O)[C@H](CCCCN)NC(=O)[C@H](C)NC(=O)[C@H](C)NC(=O)[C@@H]1CCCN1C(=O)[C@H](CCCCN)NC(=O)[C@H](CCCCN)NC(=O)[C@H](C)NC(=O)[C@H](CCCCN)NC(=O)[C@H](CCCCN)NC(=O)[C@@H]1CCCN1C(=O)[C@H](CO)NC(=O)[C@H](CCCCN)NC(=O)[C@@H](N)CCCCN)C(=O)O) [NBC8] | NBC15>NBC8, NBC9, NBC11>NBC7>>>poly-lysine |  | optimal transfection efficiency
